This note sets out measurements from US12084445B2, “Broad-spectrum carbapenems” (VenatoRx Pharmaceuticals, Inc., priority 2018, dated 2024).

Like-named read-outs stand apart in the source and are kept apart here.

One may read the MIC as the lowest concentration that inhibits growth of the organism.

Holding throughout (type): cell-based
Test [1] has as its system E. coli ATCC 25922 (wild-type/QC strain). The test can be described thus: broth microdilution MIC assay, E. coli ATCC 25922. As to conditions: Escherichia coli, ATCC25922, E. coli 25922, read-out: E. coli 25922 MIC. In a few lines: (§1)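 Growth inhibition was scored by eye after 16-20 h at 37 °C in Mueller-Hinton broth. Each well received 5×10^5 CFU/mL of log-phase culture plus compound from a 2-fold dilution series.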
A general note: In broth dilution the organism is exposed to a series of concentrations in liquid medium.

For test [2], the system named is S. aureus ATCC 29213 (methicillin sensitive). The test can be described thus: broth microdilution MIC assay, S. aureus ATCC 29213. As to conditions: Staphylococcus aureus, ATCC 29213 / MSSA; Table 3; S. aureus 29213 (MSSA); read-out: S. aureus 29213 (MSSA) MIC. The method, then: (§2) To determine the ability of test compounds to potentiate the inhibition of the growth of bacterial strains, classic cell-based broth microdilution MIC assays were employed. MIC assays are performed according to CLSI methods except where otherwise noted (CLSI, 2011 and CLSI, 2009). The reference strains S. aureus ATCC 29213 (methicillin sensitive), S. aureus ATCC 33591 (methicillin-resistant), E. coli ATCC 25922 (wild-type/QC strain), P. aeruginosa ATCC 27853 (wild-type/QC strain), and the clinical isolate P. aeruginosa PA 8 were used to determine the ability of the exemplary carbapenem compounds to inhibit bacterial growth. An expanded panel of methicillin resistance S. aureus (MRSA) and Pseudomonas was also used to determine the ability of exemplary carbapenem compounds to inhibit bacterial growth across a broader representation of those species. To determine activity in MRSA and in addition to S. aureus ATCC 33591, S. aureus USA 300, USA 400 and USA 600, some of the most common clones found to cause human infection, were also used. To further gauge the impact on the carbapenem compounds due to various resistance mechanisms in Pseudomonas, the following strains were included: P. aeruginosa 35151 (hyper-permeable strain), P. aeruginosa AmexAB-OprM (an efflux pump knockout), and P. aeruginosa PA 3 (a clinical isolate of reduced carbapenem susceptibility). Briefly, cryo-preserved bacterial cultures of clinical strains are streaked for isolation on appropriate agar medium, in this case Mueller Hinton II agar. Following incubation to allow formation of colonies, these plates are sealed with parafilm and stored refrigerated for up to two weeks. For preparation of assay inocula and to ensure low variability, at least 5 colonies are picked from the agar plates with an inoculating loop and aseptically transferred to a culture tube containing 3 mL of Mueller-Hinton Broth (supplemented with divalent cations to required levels based on Manufacturers' specification). The broth culture is grown for 3-5 hours at 37° C. with shaking at 200 rpm. Meanwhile, 2-fold serial dilutions of test compounds are conducted in a 96 well plate with a final volume of 75 μL per well at 2-fold the final desired concentration. After the dilution plates are set up the growing cultures are then diluted in a cuvette containing MH II broth and the optical density is measured at 600 nm. Inocula are diluted such that 75 μL of this culture in Mueller-Hinton Broth results in a starting bacterial concentration of 5×10^5 CFU/mL when added to the dilution plates. The plates are incubated 16-20 hours at 37° C. The MIC is read visually as the lowest concentration well with no bacterial growth.
(§3) Representative results are shown in Tables 3, 4, and 5 where A represents an MIC>32 μg/mL, B represents an MIC between 8 and 32 μg/mL inclusive, C represents an MIC between 1 and 4 μg/mL inclusive, and D represents an MIC of <1 μg/mL. NT=Not Tested.

In test [3] the test system is S. aureus ATCC 33591 (methicillin-resistant). The test can be described thus: broth microdilution MIC assay, S. aureus ATCC 33591. As to conditions: Staphylococcus aureus. In a few lines: as §1
Test [4] relates to P. aeruginosa ATCC 27853 (wild-type/QC strain). The test can be described thus: broth microdilution MIC assay, P. aeruginosa ATCC 27853. The following applies: Pseudomonas aeruginosa, ATCC27853, P. aeruginosa 27853, read-out: P. aeruginosa 27853 MIC. Summed up:
as §1

For test [5], the system named is clinical isolate P. aeruginosa PA 8. The test can be described thus: broth microdilution MIC assay, P. aeruginosa PA 8. The following applies: Pseudomonas aeruginosa, P. aeruginosa PA8. Summed up: as §1
Test [6] has as its system P. aeruginosa ΔmexAB-OprM (an efflux pump knockout). The test can be described thus: broth microdilution MIC assay, P. aeruginosa ΔmexAB-OprM. The following applies: Pseudomonas aeruginosa, 20 h, read-out: P. aeruginosa ΔmexAB-OprM MIC. Summed up:
as §1

In test [7] the test system is P. aeruginosa 35151 (hyper-permeable strain). The test can be described thus: broth microdilution MIC assay, P. aeruginosa 35151. The following applies: Pseudomonas aeruginosa, read-out: P. aeruginosa 35151 MIC. Summed up:
as §1

For test [8], the system named is S. aureus USA600. The test can be described thus: broth microdilution MIC assay, S. aureus USA 600. The following applies: Staphylococcus aureus; Table 4; S. aureus USA600; read-out: S. aureus USA600 MIC. In a few lines:
as §1

The test system of test [9] is P. aeruginosa PA 3 (a clinical isolate of reduced carbapenem susceptibility). The experiment in a line: broth microdilution MIC assay, P. aeruginosa PA 3. As to conditions: Pseudomonas aeruginosa; Table 5; P. aeruginosa PA3. The method, then: as §2, §3
The test system of test [10] is S. aureus USA 300. The experiment in a line: broth microdilution MIC assay, S. aureus USA 300. The following applies: Staphylococcus aureus; Table 4; S. aureus USA300; read-out: S. aureus USA300 MIC. Summed up: as §1
The mark [11] stands for this setting: ATCC 33591 / MRSA, Table 3, S. aureus 33591 (MRSA), read-out: S. aureus 33591 (MRSA) MIC.
The mark [12] stands for this setting: ATCC33591, Table 4, S. aureus 33591, read-out: S. aureus 33591 MIC.

As to `C[C@@H](O)[C@H]1C(=O)N2C(C(=O)O)=C(S[C@@H]3CCN(Cc4ccncc4)C3)[C@H](C)[C@H]12` [Example 9, (4R,5S,6S)-6-((R)-1-hydroxyethyl)-4-methyl-7-oxo-3-(((R)-1-(pyridin-4-ylmethyl)pyrrolidin-3-yl)thio)-1-azabicyclo[3.2.0]hept-2-ene-2-carboxylic acid], the minimal inhibitory concentration (MIC) in test [1] (Table 3) was under 1 µg/mL; in test [2] it was under 1 µg/mL; in test [3] (setting [11]), 8 to 32 µg/mL; in [4] (Table 3), 8 to 32 µg/mL; in [5] (Table 3), 8 to 32 µg/mL.
Take `C[C@@H](O)[C@H]1C(=O)N2C(C(=O)O)=C(S[C@@H]3CCN(CCC4CCNCC4)C3)[C@H](C)[C@H]12` [Example 11, (4R,5S,6S)-6-((R)-1-hydroxyethyl)-4-methyl-7-oxo-3-(((R)-1-(2-(piperidin-4-yl)ethyl)pyrrolidin-3-yl)thio)-1-azabicyclo[3.2.0]hept-2-ene-2-carboxylic acid]: the minimal inhibitory concentration (MIC) in test [1] (Table 3) is under 1 µg/mL; in [2], under 1 µg/mL; in [3] (setting [11]), 1 to 4 µg/mL; in test [4] (Table 3), 1 to 4 µg/mL; in [5] (Table 3), 1 to 4 µg/mL.
For the molecule `CNCc1ccc(CN2CC[C@@H](SC3=C(C(=O)O)N4C(=O)[C@H]([C@@H](C)O)[C@H]4[C@H]3C)C2)cc1` [Example 19, (4R,5S,6S)-6-((R)-1-hydroxyethyl)-4-methyl-3-(((R)-1-(4-((methylamino)methyl)benzyl)pyrrolidin-3-yl)thio)-7-oxo-1-azabicyclo[3.2.0]hept-2-ene-2-carboxylic acid], the MIC in test [1] (Table 3) is under 1 µg/mL; in test [2] it was 1 to 4 µg/mL; in test [3] (setting [11]) it was 8 to 32 µg/mL; in [4] (Table 3), 1 to 4 µg/mL; in test [5] (Table 3) it was 1 to 4 µg/mL.
Consider `CN[C@H]1CC[C@@H](CN2CC[C@@H](SC3=C(C(=O)O)N4C(=O)[C@H]([C@@H](C)O)[C@H]4[C@H]3C)C2)CC1` [Example 22, (4R,5S,6S)-6-((R)-1-hydroxyethyl)-4-methyl-3-(((R)-1-(((1s,4S)-4-(methylamino)cyclohexyl)methyl)pyrrolidin-3-yl)thio)-7-oxo-1-azabicyclo[3.2.0]hept-2-ene-2-carboxylic acid], for which the MIC in test [1] (Table 3) is under 1 µg/mL; in [2] it was 1 to 4 µg/mL; in test [3] (setting [11]), 8 to 32 µg/mL; in test [4] (Table 3), 1 to 4 µg/mL; in test [5] (Table 3), 1 to 4 µg/mL.
With `C[C@@H](O)[C@H]1C(=O)N2C(C(=O)O)=C(S[C@@H]3CCN([C@H]4CC[C@H](N)CC4)C3)[C@H](C)[C@H]12` [Example 24, (4R,5S,6S)-3-(((R)-1-((1s,4S)-4-aminocyclohexyl)pyrrolidin-3-yl)thio)-6-((R)-1-hydroxyethyl)-4-methyl-7-oxo-1-azabicyclo[3.2.0]hept-2-ene-2-carboxylic acid], the MIC is under 1 µg/mL in test [1] (Table 3); 1 to 4 µg/mL in test [2]; 8 to 32 µg/mL in [3] (setting [11]); 1 to 4 µg/mL in [4] (Table 3); 8 to 32 µg/mL in test [5] (Table 3).
In the case of `C[C@@H](O)[C@H]1C(=O)N2C(C(=O)O)=C(S[C@@H]3CCCN(CC4CCNCC4)C3)[C@H](C)[C@H]12` [Example 43, (4R,5S,6S)-6-((R)-1-hydroxyethyl)-4-methyl-7-oxo-3-(((R)-1-(piperidin-4-ylmethyl)piperidin-3-yl)thio)-1-azabicyclo[3.2.0]hept-2-ene-2-carboxylic acid], the MIC in test [6] is 8 to 32 µg/mL; in test [1] (Table 4), under 1 µg/mL; in test [3] (setting [12]) it was 8 to 32 µg/mL; in [7], under 1 µg/mL; in test [4] (Table 5) it was 8 to 32 µg/mL; in test [8], 1 to 4 µg/mL. Also, the MIC is over 32 µg/mL in test [9], over 32 µg/mL in test [5] (Table 5) and 1 to 4 µg/mL in test [10].
For `C[C@@H](O)[C@H]1C(=O)N2C(C(=O)O)=C(S[C@@H]3CCN(C[C@@H]4CNCCO4)C3)[C@H](C)[C@H]12` [Example 49, (4R,5S,6S)-6-((R)-1-hydroxyethyl)-4-methyl-3-(((R)-1-(((S)-morpholin-2-yl)methyl)pyrrolidin-3-yl)thio)-7-oxo-1-azabicyclo[3.2.0]hept-2-ene-2-carboxylic acid], the minimum inhibitory concentration (MIC) is 1 to 4 µg/mL in [6]; under 1 µg/mL in [1] (Table 4); 8 to 32 µg/mL in test [3] (setting [12]); under 1 µg/mL in [7]; 8 to 32 µg/mL in test [4] (Table 5); 1 to 4 µg/mL in test [8]. Also, the MIC in test [9] fell in the range of 8 to 32 µg/mL; in [5] (Table 5), 1 to 4 µg/mL; in test [10], 1 to 4 µg/mL.
As to `C[C@@H](O)[C@H]1C(=O)N2C(C(=O)O)=C(S[C@@H]3CCN(C[C@H]4CNCCO4)C3)[C@H](C)[C@H]12` [Example 50, (4R,5S,6S)-6-((R)-1-hydroxyethyl)-4-methyl-3-(((R)-1-(((R)-morpholin-2-yl)methyl)pyrrolidin-3-yl)thio)-7-oxo-1-azabicyclo[3.2.0]hept-2-ene-2-carboxylic acid], the minimum inhibitory concentration (MIC) in [6] is 1 to 4 µg/mL; in test [1] (Table 4), under 1 µg/mL; in [3] (setting [12]), 1 to 4 µg/mL; in [7], under 1 µg/mL; in test [4] (Table 5) it was 1 to 4 µg/mL; in test [8], 1 to 4 µg/mL. In addition, the MIC in test [9] fell in the range of 8 to 32 µg/mL; in test [5] (Table 5), 1 to 4 µg/mL; in test [10], 1 to 4 µg/mL.
In the case of `C[C@@H](O)[C@H]1C(=O)N2C(C(=O)O)=C(S[C@@H]3CCN(C[C@H]4CCNC4)C3)[C@H](C)[C@H]12` [Example 51, (4R,5S,6S)-6-((R)-1-hydroxyethyl)-4-methyl-7-oxo-3-(((R)-1-(((S)-pyrrolidin-3-yl)methyl)pyrrolidin-3-yl)thio)-1-azabicyclo[3.2.0]hept-2-ene-2-carboxylic acid], the minimum inhibitory concentration (MIC) is 1 to 4 µg/mL in test [6]; under 1 µg/mL in test [1] (Table 4); 1 to 4 µg/mL in test [3] (setting [12]); under 1 µg/mL in [7]; 1 to 4 µg/mL in [4] (Table 5); 1 to 4 µg/mL in test [8]. Further, the minimum inhibitory concentration (MIC) in test [9] lay in the range of 8 to 32 µg/mL; in test [5] (Table 5), 1 to 4 µg/mL; in [10] it was 1 to 4 µg/mL.
As to `C[C@@H](O)[C@H]1C(=O)N2C(C(=O)O)=C(S[C@@H]3CCN(C[C@@H]4CCNC4)C3)[C@H](C)[C@H]12` [Example 53, (4R,5S,6S)-6-((R)-1-hydroxyethyl)-4-methyl-7-oxo-3-(((R)-1-(((R)-pyrrolidin-3-yl)methyl)pyrrolidin-3-yl)thio)-1-azabicyclo[3.2.0]hept-2-ene-2-carboxylic acid], the minimal inhibitory concentration (MIC) in test [6] was 1 to 4 µg/mL; in test [1] (Table 4), under 1 µg/mL; in [3] (setting [12]), 1 to 4 µg/mL; in test [7], under 1 µg/mL; in test [4] (Table 5) it was 1 to 4 µg/mL; in test [8] it was 1 to 4 µg/mL. Moreover, the MIC lay in the range of 8 to 32 µg/mL in [9], 1 to 4 µg/mL in test [5] (Table 5) and 1 to 4 µg/mL in test [10].
